For this assay, the target named is T1, Human CaV2.2 channels (Homo sapiens, UniProt Q00975).
T1 construct: expressed in transfected cells; Kir2.3 also stably co-expressed
Kind of assay: Fluorescence assay for CaV2.2 channels using potassium depolarization to induce channel opening (FLIPR, Fluo 4). In kind it is cell-based. The following applies: 30 mM KCl assay buffer (inactivated channel state), HEK293 cells; for inhibition at 3 µM: HEK293, 3 μM test compound, read-out: Activity Category: %-Inhib (CaV2.2) @3 μM @30 mM KCl; for Activity Category: %-Inhib (CaV2.2) @3 μM @30 mM KCl: 3 μM test compound. The source says:
In the process, the Ca^2+ influx is quantified in the FLIPR assay with the aid of a Ca^2+-sensitive dye (type Fluo-4, Molecular Probes Europe BV, Leiden, the Netherlands) in a fluorescent imaging plate reader (FLIPR 3, Molecular Devices, Sunnyvale, USA), as described hereinafter.
Human CaV2.2 channels were stably expressed in HEK293 cells together with alpha2-delta and beta subunits of voltage gated calcium channels. In addition, an inwardly rectifying potassium channel (Kir2.3) was stably expressed in these cells to augment control of the cell membrane potential by the concentration of extracellular potassium ions. Raise of the extracellular potassium concentration leads to depolarization of the membrane potential and thus regulates the voltage dependent state of CaV2.2 channels. For preparation, cells were seeded in black poly-D-lysine coated 96-well plates (Becton Dickinson, Biocoat 4640) in 100 μL medium [500 mL DMEM/F-12 plus Glutamax (Invitrogen 31331-093) plus 5.5 mL MEM NEAA 100× (Invitrogen 11140-035) plus 50 mL FBS decomplemented (Invitrogen 10270-106) plus 200 μg/mL Geneticin (Invitrogen 10131-027) plus 50 μg/mL Hygromycin B (Invitrogen 10687-010) plus 2 μg/mL Blasticidin (anti-bl5b Invivo-Gen) plus 0.2 μg/mL Puromycin (A 11138-03)] at a cell density of 30.000 cells per well. Plates were incubated at 37° C. (5% CO2) for 20 to 23 h. On the day of experiment medium was discarded and cells were loaded with Fluo 4 by addition of 100 μL of basic assay buffer (10 mM HEPES, 1 mM KCl, 149 mM NaCl, 0.8 mM CaCl2, 1.7 mM MgCl2, 10 mM Glucose, 0.1% BSA. pH 7.4) containing 2 μM Fluo 4 (Molecular Probes; F-14201), 0.01% pluronic acid (Molecular Probes; P-6866) and 2.5 mM probenecid (Molecular Probes; P36400). Cells were incubated in the dark at 25° C. for 60 min. Then dye containing buffer was discarded and 100 μL basic (1 mM KCl) or alternative (30 mM KCl) assay buffer was added. The alternative assay buffer contained altered concentrations of KCl (30 mM) and NaCl (120 mM) and was used in order to promote the inactivated channel state. After that 25 μL of basic or alternative assay buffer with or without test compound were added and cells were incubated again in the dark at 25° C. for 15 min. Fluorescence intensity was measured on a FLIPR 3 instrument (Molecular Devices Corp., Sunnyvale, Calif.) with excitation at 480 nm and emission at 535 nm. After continuously reading fluorescence for 30 sec, 50 μL of basic assay buffer containing 210 mM KCl (NaCl omitted) were added for depolarization. Peak fluorescent signal intensity was determined and the amplitude of the peak signal, normalized to base line, was used to measure channel inhibition by test compounds.

Where only a bound is given, the exact number is not on record here.

T1 sequence (Q00975 whole entry): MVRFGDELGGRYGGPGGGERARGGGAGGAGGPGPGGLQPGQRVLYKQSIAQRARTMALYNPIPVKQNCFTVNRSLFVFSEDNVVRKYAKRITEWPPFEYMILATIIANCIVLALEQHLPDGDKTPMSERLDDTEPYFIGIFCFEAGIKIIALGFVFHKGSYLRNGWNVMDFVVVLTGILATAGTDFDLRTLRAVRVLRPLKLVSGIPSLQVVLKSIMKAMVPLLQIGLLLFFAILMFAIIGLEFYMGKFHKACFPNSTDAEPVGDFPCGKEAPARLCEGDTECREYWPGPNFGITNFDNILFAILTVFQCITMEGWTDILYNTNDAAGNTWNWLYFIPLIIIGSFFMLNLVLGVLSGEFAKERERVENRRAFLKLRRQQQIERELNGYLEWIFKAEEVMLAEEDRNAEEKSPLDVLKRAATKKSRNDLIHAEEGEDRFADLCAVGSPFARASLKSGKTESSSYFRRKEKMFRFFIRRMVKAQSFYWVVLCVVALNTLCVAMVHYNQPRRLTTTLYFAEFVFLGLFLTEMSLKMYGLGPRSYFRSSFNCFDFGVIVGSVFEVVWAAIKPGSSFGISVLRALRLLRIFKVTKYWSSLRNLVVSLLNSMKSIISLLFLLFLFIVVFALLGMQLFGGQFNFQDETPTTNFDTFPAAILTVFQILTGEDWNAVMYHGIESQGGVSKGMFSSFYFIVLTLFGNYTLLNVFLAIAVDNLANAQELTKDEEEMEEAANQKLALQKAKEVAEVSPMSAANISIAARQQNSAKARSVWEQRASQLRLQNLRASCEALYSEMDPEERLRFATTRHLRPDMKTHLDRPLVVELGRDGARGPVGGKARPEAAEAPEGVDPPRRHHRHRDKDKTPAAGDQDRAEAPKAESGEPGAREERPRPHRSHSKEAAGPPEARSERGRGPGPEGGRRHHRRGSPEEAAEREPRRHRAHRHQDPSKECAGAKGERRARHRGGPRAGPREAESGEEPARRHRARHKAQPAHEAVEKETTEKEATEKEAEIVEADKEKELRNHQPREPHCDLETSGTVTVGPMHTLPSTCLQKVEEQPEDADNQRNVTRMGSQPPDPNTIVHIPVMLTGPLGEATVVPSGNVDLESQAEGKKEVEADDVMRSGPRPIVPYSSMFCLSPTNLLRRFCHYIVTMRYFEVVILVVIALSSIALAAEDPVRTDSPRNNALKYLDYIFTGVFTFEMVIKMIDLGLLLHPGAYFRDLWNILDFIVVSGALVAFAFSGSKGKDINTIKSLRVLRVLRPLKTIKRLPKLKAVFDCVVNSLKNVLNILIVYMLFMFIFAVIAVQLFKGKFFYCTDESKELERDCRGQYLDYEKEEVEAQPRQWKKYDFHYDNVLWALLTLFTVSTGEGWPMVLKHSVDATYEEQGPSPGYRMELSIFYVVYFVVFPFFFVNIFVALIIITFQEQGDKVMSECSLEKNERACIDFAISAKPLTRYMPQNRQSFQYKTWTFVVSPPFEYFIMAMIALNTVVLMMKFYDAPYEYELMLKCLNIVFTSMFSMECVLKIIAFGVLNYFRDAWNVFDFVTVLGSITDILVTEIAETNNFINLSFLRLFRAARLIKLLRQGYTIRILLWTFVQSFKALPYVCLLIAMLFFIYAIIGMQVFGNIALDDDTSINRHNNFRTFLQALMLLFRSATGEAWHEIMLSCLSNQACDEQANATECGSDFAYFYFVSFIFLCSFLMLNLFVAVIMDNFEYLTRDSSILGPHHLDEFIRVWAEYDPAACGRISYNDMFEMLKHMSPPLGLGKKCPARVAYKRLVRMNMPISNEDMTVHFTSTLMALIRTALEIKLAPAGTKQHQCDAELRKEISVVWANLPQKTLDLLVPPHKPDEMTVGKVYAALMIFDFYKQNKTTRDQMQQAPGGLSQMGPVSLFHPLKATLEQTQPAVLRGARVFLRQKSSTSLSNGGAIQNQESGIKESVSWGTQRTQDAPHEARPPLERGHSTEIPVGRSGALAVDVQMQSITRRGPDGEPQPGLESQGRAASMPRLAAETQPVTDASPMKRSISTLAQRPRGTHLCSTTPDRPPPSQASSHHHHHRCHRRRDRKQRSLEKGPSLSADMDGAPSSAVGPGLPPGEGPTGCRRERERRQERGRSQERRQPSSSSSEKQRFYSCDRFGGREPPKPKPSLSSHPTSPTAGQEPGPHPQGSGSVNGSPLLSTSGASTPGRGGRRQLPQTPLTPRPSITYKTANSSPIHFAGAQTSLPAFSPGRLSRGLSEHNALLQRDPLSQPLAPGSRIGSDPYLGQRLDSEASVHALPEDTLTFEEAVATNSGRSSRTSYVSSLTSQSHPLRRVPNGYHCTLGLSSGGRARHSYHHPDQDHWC

In the case of `CC1(C)CC(C)(S(=O)(=O)c2cccc(C(F)(F)F)c2)CC(c2ccc(Cl)cc2)O1` (racemic) [SC-302, 6-(4-Chlorophenyl)-2,2,4-trimethyl-4-[[3-(trifluoromethyl)phenyl]sulfonyl]-tetrahydro-pyran], the inhibition at 3 µM is 75 to 95%. On to `CC1(S(=O)(=O)c2cc(F)cc(C(F)(F)F)c2)CCOC(c2ccc(Cl)cc2)C1` (racemic) [SC-305, 2-(4-Chlorophenyl)-4-[[3-fluoro-5-(trifluoromethyl)-phenyl]sulfonyl]-4-methyl-tetrahydro-pyran], for which the inhibition at 3 µM fell in the range of 75 to 95%. On to `CC1(S(=O)(=O)c2cccc(OC(F)(F)F)c2)CCOC(c2ccc(Cl)cc2)C1` (racemic) [SC-315, 2-(4-Chlorophenyl)-4-methyl-4-[[3-(trifluoromethyloxy)-phenyl]sulfonyl]-tetrahydro-pyran], for which the inhibition at 3 µM is more than 95%. As for `CC1(S(=O)(=O)c2cccc(OC(F)(F)F)c2)CCOC(c2ccc(S(C)(=O)=O)cc2F)C1` (racemic) [SC-504, 2-(2-Fluoro-4-methylsulfonyl-phenyl)-4-methyl-4-[[3-(trifluoromethyloxy)-phenyl]sulfonyl]-tetrahydro-pyran], the inhibition at 3 µM was more than 95%. Same read-out and setting: the value for `CC(C)c1cccc(S(=O)(=O)C2(C)CCOC(c3ccc(S(C)(=O)=O)cc3F)C2)c1` (racemic) [SC-505, 2-(2-Fluoro-4-methylsulfonyl-phenyl)-4-[(3-isopropyl-phenyl)sulfonyl]-4-methyl-tetrahydro-pyran] was more than 95%; that for `CC1(S(=O)(=O)c2cccc(C(F)F)c2)CCOC(c2ccc(S(C)(=O)=O)cc2F)C1` (racemic) [SC-508, 4-[[3-(Difluoro-methyl)-phenyl]sulfonyl]-2-(2-fluoro-4-methylsulfonyl-phenyl)-4-methyl-tetrahydro-pyran] was 75 to 95%. Still for that read-out and setting: the figure for `CC(C)Oc1cccc(S(=O)(=O)C2(C)CCOC(c3ccc(S(C)(=O)=O)cc3F)C2)c1` (racemic) [SC-511, 2-(2-Fluoro-4-methylsulfonyl-phenyl)-4-[(3-isopropoxy-phenyl)sulfonyl]-4-methyl-tetrahydro-pyran] is 75 to 95%; for `CC1(S(=O)(=O)c2cccc(C3CC3)c2)CCOC(c2ccc(S(C)(=O)=O)cc2F)C1` (racemic) [SC-514, 4-[(3-Cyclopropyl-phenyl)sulfonyl]-2-(2-fluoro-4-methylsulfonyl-phenyl)-4-methyl-tetrahydro-pyran] it is more than 95%. On to `CC1(S(=O)(=O)c2cc(F)cc(C(F)(F)F)c2)CCOC(c2ccc(S(C)(=O)=O)cc2F)C1` (racemic) [SC-515, 2-(2-Fluoro-4-methylsulfonyl-phenyl)-4-[[3-fluoro-5-(trifluoromethyl)-phenyl]sulfonyl]-4-methyl-tetrahydro-pyran], for which the inhibition at 3 µM was more than 95%. Consider `CC1(S(=O)(=O)c2cccc(OC(F)F)c2)CCOC(c2ccc(S(C)(=O)=O)cc2F)C1` (racemic) [SC-520, 4-[[3-(Difluoro-methoxy)-phenyl]sulfonyl]-2-(2-fluoro-4-methylsulfonyl-phenyl)-4-methyl-tetrahydro-pyran], for which the inhibition at 3 µM was 75 to 95%. Same read-out and setting: the value for `CC1(S(=O)(=O)c2cccc(C(F)(F)F)c2)CCC(c2ccc(Cl)cc2)OC1` (single isomer, unassigned) [SC-116, 2-(4-Chlorophenyl)-5-methyl-5-[[3-(trifluoromethyl)phenyl]sulfonyl]-tetrahydro-pyran] was 40 to 75%; that for `CC1(c2ccc(Cl)cc2)CC(S(=O)(=O)c2cccc(C(F)(F)F)c2)CCO1` (single isomer, unassigned) [SC-117, 2-(4-Chlorophenyl)-2-methyl-4-[[3-(trifluoromethyl)phenyl]sulfonyl]-tetrahydro-pyran] was more than 95%. `CC1(S(=O)(=O)c2cccc(C(F)(F)F)c2)CCOC(COc2ccc(Cl)cc2)C1` (single isomer, unassigned) [SC-127, 2-((4-chlorophenoxy)methyl)-4-methyl-4-((3-(trifluoromethyl)phenyl)sulfonyl)tetrahydro-2H-pyran]: the inhibition at 3 µM is more than 95%. As to `CC1(S(=O)(=O)c2cccc(C(F)(F)F)c2)CCOC(Cc2ccc(Cl)cc2)C1` (single isomer, unassigned) [SC-130, 2-[(4-Chlorophenyl)-methyl]-4-methyl-4-[[3-(trifluoromethyl)phenyl]sulfonyl]-tetrahydro-pyran], the inhibition at 3 µM fell in the range of 75 to 95%. On to `CC1(S(=O)(=O)c2cccc(C(F)(F)F)c2)CCOC(c2ccc(S(C)(=O)=O)c(S(C)(=O)=O)c2)C1` (single isomer, unassigned) [SC-132, 2-[3,4-Bis(methylsulfonyl)-phenyl]-4-methyl-4-[[3-(trifluoromethyl)phenyl]sulfonyl]-tetrahydro-pyran], for which the inhibition at 3 µM lay within 75 to 95%. As to `CC1(S(=O)(=O)c2cccc(C(F)(F)F)c2)CCOC(c2ccc(S(C)(=O)=O)c(S(C)(=O)=O)c2)C1` (single isomer, unassigned) [SC-133, 2-[3,4-Bis(methylsulfonyl)-phenyl]-4-methyl-4-[[3-(trifluoromethyl)phenyl]sulfonyl]-tetrahydro-pyran], the “Activity Category: %-Inhib (CaV2.2) @3 μM @30 mM KCl” value (“Activity Category: %-Inhib” below) is reported as “A (%-Inhibition >95%)”. On to `CC1(S(=O)(=O)c2cccc(C(F)(F)F)c2)CCOC(c2ccc(-n3cncn3)cc2)C1` (single isomer, unassigned) [SC-134, 1-[4-[4-Methyl-4-[[3-(trifluoromethyl)phenyl]sulfonyl]-tetrahydro-pyran-2-yl]-phenyl]-1H-[1,2,4]triazole], for which the inhibition at 3 µM is 75 to 95%. `CC1(S(=O)(=O)c2cccc(C(F)(F)F)c2)CCOC(c2ccc(-n3cncn3)cc2)C1` (single isomer, unassigned) [SC-135, 1-[4-[4-Methyl-4-[[3-(trifluoromethyl)phenyl]sulfonyl]-tetrahydro-pyran-2-yl]-phenyl]-1H-[1,2,4]triazole]: the “Activity Category: %-Inhib” value is “A (%-Inhibition >95%)”. `CC1(S(=O)(=O)c2cccc(C(F)(F)F)c2)CCOC(c2ccc(F)c(C#N)c2)C1` (single isomer, unassigned) [SC-136, 2-Fluoro-5-[4-methyl-4-[[3-(trifluoromethyl)phenyl]sulfonyl]-tetrahydro-pyran-2-yl]-benzonitrile]: the inhibition at 3 µM was more than 95%.

As for `CC1(S(=O)(=O)c2cccc(C(F)(F)F)c2)CCOC(c2ccc(F)c(C(N)=O)c2)C1` (single isomer, unassigned) [SC-138, 2-Fluoro-5-[4-methyl-4-[[3-(trifluoromethyl)phenyl]sulfonyl]-tetrahydro-pyran-2-yl]-benzamide], the “Activity Category: %-Inhib” value is “C (%-Inhibition >40% up to ≦75%)”. Regarding `CC1(S(=O)(=O)c2cccc(C(F)(F)F)c2)CCOC(c2ccc(F)c(C(N)=O)c2)C1` (single isomer, unassigned) [SC-139, 2-Fluoro-5-[4-methyl-4-[[3-(trifluoromethyl)phenyl]sulfonyl]-tetrahydro-pyran-2-yl]-benzamide], the “Activity Category: %-Inhib” value is reported as “B (%-Inhibition >75% up to ≦95%)”. As to `CC1(S(=O)(=O)c2cc(F)cc(C(F)(F)F)c2)CCOC(c2ccc(S(C)(=O)=O)cc2)C1` (single isomer, unassigned) [SC-142, 4-[[3-Fluoro-5-(trifluoromethyl)-phenyl]sulfonyl]-4-methyl-2-(4-methylsulfonyl-phenyl)-tetrahydro-pyran], the inhibition at 3 µM lay within 75 to 95%. For `CC1(S(=O)(=O)c2cccc(C(F)(F)F)c2)CCOC(COc2ccc(S(C)(=O)=O)cc2F)C1` (single isomer, unassigned) [SC-148, 2-[(2-Fluoro-4-methylsulfonyl-phenoxy)-methyl]-4-methyl-4-[[3-(trifluoromethyl)phenyl]sulfonyl]-tetrahydro-pyran], the inhibition at 3 µM lay in the range of 75 to 95%. Turning to `CC1(S(=O)(=O)c2cccc(C(F)(F)F)c2)CCOC(COc2ccc(S(C)(=O)=O)cc2F)C1` (single isomer, unassigned) [SC-149, 2-[(2-Fluoro-4-methylsulfonyl-phenoxy)-methyl]-4-methyl-4-[[3-(trifluoromethyl)phenyl]sulfonyl]-tetrahydro-pyran], the “Activity Category: %-Inhib” value is “A (%-Inhibition >95%)”.

Source of the values: patent US9896440B2, “Aryl substituted heterocyclyl sulfones” (GRÜNENTHAL GMBH, priority 2014, dated 2018).
